Test results: paper PMC7738871, “Covalent modification of Keap1 at Cys77 and Cys434 by pubescenoside a suppresses oxidative stress-induced NLRP3 inflammasome activation in myocardial ischemia-reperfusion injury” (Theranostics, 2021)

Biological target: T1, Keap1 C273S (Homo sapiens, UniProt Q14145, C273S)
T1 construct: His (N); made in house; host or cells: E. coli BL21 (DE3)
Assay: ITC titration of PBA with Keap1-C273S
Assay type: binding
Settings: 25 ℃
Protocol: The Keap1 was amplified by PCR using a human cDNA library, and was subcloned into the vector pET28-TEV, which contained one tobacco etch virus (TEV) protease cleavage site at the upstream multiple cloning site. The protein was expressed in E. coli BL21 (DE3) cells and incubated at 37 °C until the OD600 value reached 0.6, using 0.2 mM isopropyl β-D-1-thiogalactopyranoside (IPTG) overnight induction at 18 °C. The cells were isolated by centrifugation, resuspended in ice-cold lysis buffer and lysed by cryogenic overpressure cell breaker at 1,200 psi. The lysates were centrifuged for 60 min at 14,000 rpm to obtain the supernatant. Gravity flow purification of Keap1 protein was obtained at room temperature using 1 mL of Ni-NTA and eluted in buffer containing 250 mM imidazole, followed by 1 mL of HiTrap QHP for the second step purification. The final protein was purified and validated by Superdex 200 10/300GL resin.
The mutant plasmid DNA was obtained by PCR. The PCR products were cleaved by DpnI restriction enzymes. The restriction endonuclease-cleaved mixture was subsequently transformed into E. coli DH5α. Colonies were evaluated by colony PCR and sequenced. The mutant plasmid was transformed into E. coli BL21 (DE3) after successful sequencing. The steps for expression and purification of all recombinants were described above.
Isothermal calorimetry (ITC) titration experiments were performed at 25 °C. WT Keap1, Keap1 mutants and PBA were dissolved in binding buffer (40 mM Tris-HCl pH 8.0, 250 mM NaCl). In a typical experiment, 60 μL of PBA (1 mM) was injected 19 times at 2-min intervals from a stirring syringe into the sample cell containing 300 μL of WT protein or mutants (30 μM). The first injection was 0.4 μL of PBA, and the subsequent 18 injections were 2 μL each time. The site-binding models were determined by using MicroCal Origin software.

T1 sequence (Q14145 whole entry C273S): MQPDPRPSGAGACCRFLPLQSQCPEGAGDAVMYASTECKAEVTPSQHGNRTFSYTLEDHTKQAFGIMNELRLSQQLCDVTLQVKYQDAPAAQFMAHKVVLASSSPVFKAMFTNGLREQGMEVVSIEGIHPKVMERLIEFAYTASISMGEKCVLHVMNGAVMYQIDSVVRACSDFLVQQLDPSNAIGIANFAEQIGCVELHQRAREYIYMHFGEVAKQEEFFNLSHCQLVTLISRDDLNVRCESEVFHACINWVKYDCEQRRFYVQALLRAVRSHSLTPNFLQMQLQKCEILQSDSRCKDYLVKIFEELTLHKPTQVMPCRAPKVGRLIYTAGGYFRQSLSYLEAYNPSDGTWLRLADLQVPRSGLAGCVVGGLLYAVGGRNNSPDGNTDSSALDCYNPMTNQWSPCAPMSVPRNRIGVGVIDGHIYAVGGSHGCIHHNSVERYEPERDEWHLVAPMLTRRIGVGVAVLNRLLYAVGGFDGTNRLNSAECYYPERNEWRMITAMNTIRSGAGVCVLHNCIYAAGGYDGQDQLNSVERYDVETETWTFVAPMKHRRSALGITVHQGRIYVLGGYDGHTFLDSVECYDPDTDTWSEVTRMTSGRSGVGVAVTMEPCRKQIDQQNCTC

C=C(COC(=O)C=Cc1ccc(O)c(O)c1)C(O)COC1OC(CO)C(O)C(O)C1O (stereo not shown) [PBA, pubescenoside A]
Kd: 3.8 µM | T△S: 3.53 ± 0.00 kcal/mol | △G: -7.40 ± 0.00 kcal/mol | △H: -3.87 ± 0.271 kcal/mol
